How the values were obtained:
Format in all cases: functional
OVCAR-3 = test: Cytotoxicity against Homo sapiens (human) OVCAR3 assessed as cell growth at 10 uM after 48 hr by SRB assay relative to control; conditions: OVCAR-3, 48 h, read-out: Activity
SF-539 = test: Cytotoxicity against Homo sapiens (human) SF539 assessed as cell growth at 10 uM after 48 hr by SRB assay relative to control; conditions: SF-539, 48 h, read-out: Activity
MDA-MB-468 = test: Cytotoxicity against Homo sapiens (human) MDA-MB-468 assessed as cell growth at 10 uM after 48 hr by SRB assay relative to control; conditions: MDA-MB-468, 48 h, read-out: Activity
M14 = test: Cytotoxicity against Homo sapiens (human) M14 assessed as cell growth at 10 uM after 48 hr by SRB assay relative to control; conditions: M14, 48 h, read-out: Activity
NCI-H460 = test: Cytotoxicity against Homo sapiens (human) NCI-H460 assessed as cell growth at 10 uM after 48 hr by SRB assay relative to control; conditions: NCI-H460, 48 h, read-out: Activity
SK-MEL-2 = test: Cytotoxicity against Homo sapiens (human) SK-MEL-2 assessed as cell growth at 10 uM after 48 hr by SRB assay relative to control; conditions: SK-MEL-2, 48 h, read-out: Activity
BT-549 = test: Cytotoxicity against Homo sapiens (human) BT549 assessed as cell growth at 10 uM after 48 hr by SRB assay relative to control; conditions: BT-549, 48 h, read-out: Activity
MDA-MB-435 = test: Cytotoxicity against Homo sapiens (human) MDA-MB-435 assessed as cell growth at 10 uM after 48 hr by SRB assay relative to control; conditions: MDA-MB-435, 48 h, read-out: Activity
TK-10 = test: Cytotoxicity against Homo sapiens (human) TK10 assessed as cell growth at 10 uM after 48 hr by SRB assay relative to control; conditions: TK-10, 48 h, read-out: Activity
RXF 393 = test: Cytotoxicity against Homo sapiens (human) RXF393 assessed as cell growth at 10 uM after 48 hr by SRB assay relative to control; conditions: RXF 393, 48 h, read-out: Activity
DU-145 = test: Cytotoxicity against Homo sapiens (human) DU145 assessed as cell growth at 10 uM after 48 hr by SRB assay relative to control; conditions: DU-145, 48 h, read-out: Activity
CAKI-1 = test: Cytotoxicity against Homo sapiens (human) Caki1 assessed as cell growth at 10 uM after 48 hr by SRB assay relative to control; conditions: CAKI-1, 48 h, read-out: Activity
HCT-116 = test: Cytotoxicity against Homo sapiens (human) HCT116 assessed as cell growth at 10 uM after 48 hr by SRB assay relative to control; conditions: HCT-116, 48 h, read-out: Activity
HL-60(TB) = test: Cytotoxicity against Homo sapiens (human) HL-60(TB) assessed as cell growth at 10 uM after 48 hr by SRB assay relative to control; conditions: HL-60, 48 h, read-out: Activity
SK-MEL-5 = test: Cytotoxicity against Homo sapiens (human) SK-MEL-5 assessed as cell growth at 10 uM after 48 hr by SRB assay relative to control; conditions: SK-MEL-5, 48 h, read-out: Activity
SK-MEL-28 = test: Cytotoxicity against Homo sapiens (human) SK-MEL-28 assessed as cell growth at 10 uM after 48 hr by SRB assay relative to control; conditions: SK-MEL-28, 48 h, read-out: Activity
SF-268 = test: Cytotoxicity against Homo sapiens (human) SF268 assessed as cell growth at 10 uM after 48 hr by SRB assay relative to control; conditions: SF-268, 48 h, read-out: Activity
MOLT-4 = test: Cytotoxicity against Homo sapiens (human) MOLT4 assessed as cell growth at 10 uM after 48 hr by SRB assay relative to control; conditions: MOLT-4, 48 h, read-out: Activity
RPMI-8226 = test: Cytotoxicity against Homo sapiens (human) RPMI8226 assessed as cell growth at 10 uM after 48 hr by SRB assay relative to control; conditions: RPMI-8226, 48 h, read-out: Activity
UACC-62 = test: Cytotoxicity against Homo sapiens (human) UACC62 assessed as cell growth at 10 uM after 48 hr by SRB assay relative to control; conditions: UACC-62, 48 h, read-out: Activity
SK-OV-3 = test: Cytotoxicity against Homo sapiens (human) SKOV3 assessed as cell growth at 10 uM after 48 hr by SRB assay relative to control; conditions: SK-OV-3, 48 h, read-out: Activity
ACHN = test: Cytotoxicity against Homo sapiens (human) ACHN assessed as cell growth at 10 uM after 48 hr by SRB assay relative to control; conditions: read-out: Activity
OVCAR-8 = test: Cytotoxicity against Homo sapiens (human) OVCAR8 assessed as cell growth at 10 uM after 48 hr by SRB assay relative to control; conditions: OVCAR-8, 48 h, read-out: Activity
EKVX = test: Cytotoxicity against Homo sapiens (human) EKVX assessed as cell growth at 10 uM after 48 hr by SRB assay relative to control; conditions: read-out: Activity
NCI-H226 = test: Cytotoxicity against Homo sapiens (human) NCI-H226 assessed as cell growth at 10 uM after 48 hr by SRB assay relative to control; conditions: NCI-H226, 48 h, read-out: Activity
HT-29 = test: Cytotoxicity against Homo sapiens (human) HT-29 assessed as cell growth at 10 uM after 48 hr by SRB assay relative to control; conditions: HT-29, 48 h, read-out: Activity
[1] = Cytotoxicity against Homo sapiens (human) NCI-ADR-RES assessed as cell growth at 10 uM after 48 hr by SRB assay relative to control; conditions: read-out: Activity
SW-620 = test: Cytotoxicity against Homo sapiens (human) SW620 assessed as cell growth at 10 uM after 48 hr by SRB assay relative to control; conditions: SW-620, 48 h, read-out: Activity
SNB-19 = test: Cytotoxicity against Homo sapiens (human) SNB19 assessed as cell growth at 10 uM after 48 hr by SRB assay relative to control; conditions: SNB-19, 48 h, read-out: Activity
CCRF-CEM = test: Cytotoxicity against Homo sapiens (human) CCRF-CEM assessed as cell growth at 10 uM after 48 hr by SRB assay relative to control; conditions: read-out: Activity
OVCAR-5 = test: Cytotoxicity against Homo sapiens (human) OVCAR5 assessed as cell growth at 10 uM after 48 hr by SRB assay relative to control; conditions: OVCAR-5, 48 h, read-out: Activity

Compound: Oc1c(-c2nnc(SCc3ccccc3)o2)sc2nnc(-c3ccccc3)c(-c3ccccc3)c12
- growth at 10 µM (OVCAR-3): 126%
- growth at 10 µM (SF-539): 122%
- growth at 10 µM (MDA-MB-468): 101%
- growth at 10 µM (M14): 108%
- growth at 10 µM (NCI-H460): 111%
- growth at 10 µM (SK-MEL-2): 93.1%
- growth at 10 µM (BT-549): 107%
- growth at 10 µM (MDA-MB-435): 99.4%
- growth at 10 µM (TK-10): 92.9%
- growth at 10 µM (RXF 393): 90%
- growth at 10 µM (DU-145): 112%
- growth at 10 µM (CAKI-1): 114%
- growth at 10 µM (HCT-116): 83.3%
- growth at 10 µM (HL-60(TB)): 69.8%
- growth at 10 µM (SK-MEL-5): 99.7%
- growth at 10 µM (SK-MEL-28): 98.9%
- growth at 10 µM (SF-268): 103%
- growth at 10 µM (MOLT-4): 86%
- growth at 10 µM (RPMI-8226): 92.9%
- growth at 10 µM (UACC-62): 78.6%
- growth at 10 µM (SK-OV-3): 100%
- growth at 10 µM (ACHN): 104%
- growth at 10 µM (OVCAR-8): 104%
- growth at 10 µM (EKVX): 122%
- growth at 10 µM (NCI-H226): 101%
- growth at 10 µM (HT-29): 89.8%
- growth at 10 µM [1]: 93.5%
- growth at 10 µM (SW-620): 109%
- growth at 10 µM (SNB-19): 103%
- growth at 10 µM (CCRF-CEM): 66.8%
- growth at 10 µM (OVCAR-5): 98.8%

Compound: CNc1nnc(-c2sc3nnc(-c4ccccc4)c(-c4ccccc4)c3c2O)s1
- growth at 10 µM (OVCAR-3): 116%
- growth at 10 µM (SF-539): 109%
- growth at 10 µM (MDA-MB-468): 92.6%
- growth at 10 µM (M14): 107%
- growth at 10 µM (NCI-H460): 106%
- growth at 10 µM (SK-MEL-2): 126%
- growth at 10 µM (BT-549): 101%
- growth at 10 µM (MDA-MB-435): 103%
- growth at 10 µM (TK-10): 108%
- growth at 10 µM (RXF 393): 103%
- growth at 10 µM (DU-145): 135%
- growth at 10 µM (CAKI-1): 72%
- growth at 10 µM (HCT-116): 102%
- growth at 10 µM (HL-60(TB)): 107%
- growth at 10 µM (SK-MEL-5): 104%
- growth at 10 µM (SK-MEL-28): 111%
- growth at 10 µM (SF-268): 106%
- growth at 10 µM (MOLT-4): 93.3%
- growth at 10 µM (RPMI-8226): 113%
- growth at 10 µM (UACC-62): 97.5%
- growth at 10 µM (SK-OV-3): 97.7%
- growth at 10 µM (ACHN): 107%
- growth at 10 µM (OVCAR-8): 104%
- growth at 10 µM (EKVX): 112%
- growth at 10 µM (NCI-H226): 106%
- growth at 10 µM (HT-29): 102%
- growth at 10 µM [1]: 105%
- growth at 10 µM (SW-620): 105%
- growth at 10 µM (SNB-19): 105%
- growth at 10 µM (CCRF-CEM): 110%
- growth at 10 µM (OVCAR-5): 96.5%

Compound: Oc1c(-c2nnc(-c3ccccc3)o2)sc2nnc(-c3ccccc3)c(-c3ccccc3)c12
- growth at 10 µM (OVCAR-3): 72.4%
- growth at 10 µM (SF-539): 68.5%
- growth at 10 µM (MDA-MB-468): 64.7%
- growth at 10 µM (M14): 69.6%
- growth at 10 µM (NCI-H460): 39.8%
- growth at 10 µM (SK-MEL-2): 106%
- growth at 10 µM (BT-549): 74.9%
- growth at 10 µM (MDA-MB-435): 78.4%
- growth at 10 µM (TK-10): 90.6%
- growth at 10 µM (RXF 393): 85.6%
- growth at 10 µM (DU-145): 106%
- growth at 10 µM (CAKI-1): 29.1%
- growth at 10 µM (HCT-116): 47.4%
- growth at 10 µM (HL-60(TB)): 83.2%
- growth at 10 µM (SK-MEL-5): 71.2%
- growth at 10 µM (SK-MEL-28): 85.2%
- growth at 10 µM (SF-268): 85.5%
- growth at 10 µM (MOLT-4): 47.9%
- growth at 10 µM (RPMI-8226): 64.8%
- growth at 10 µM (UACC-62): 51.1%
- growth at 10 µM (SK-OV-3): 83%
- growth at 10 µM (ACHN): 67%
- growth at 10 µM (OVCAR-8): 66.8%
- growth at 10 µM (EKVX): 94.1%
- growth at 10 µM (NCI-H226): 85%
- growth at 10 µM (HT-29): 103%
- growth at 10 µM [1]: 18.8%
- growth at 10 µM (SW-620): 64.4%
- growth at 10 µM (SNB-19): 57.2%
- growth at 10 µM (CCRF-CEM): 47.7%
- growth at 10 µM (OVCAR-5): 106%

Compound: CC(=O)Oc1c(C2=NN(C(C)=O)C(c3ccc(F)cc3)O2)sc2nnc(-c3ccccc3)c(-c3ccccc3)c12 (stereo not drawn)
- growth at 10 µM (OVCAR-3): 96.3%
- growth at 10 µM (SF-539): 104%
- growth at 10 µM (MDA-MB-468): 84%
- growth at 10 µM (M14): 102%
- growth at 10 µM (NCI-H460): 101%
- growth at 10 µM (SK-MEL-2): 99.9%
- growth at 10 µM (BT-549): 65.3%
- growth at 10 µM (MDA-MB-435): 79.6%
- growth at 10 µM (TK-10): 94.1%
- growth at 10 µM (RXF 393): 88%
- growth at 10 µM (DU-145): 114%
- growth at 10 µM (HCT-116): 80.5%
- growth at 10 µM (HL-60(TB)): 83.8%
- growth at 10 µM (SK-MEL-5): 88.2%
- growth at 10 µM (SK-MEL-28): 82.1%
- growth at 10 µM (SF-268): 89.6%
- growth at 10 µM (MOLT-4): 55.1%
- growth at 10 µM (RPMI-8226): 71.3%
- growth at 10 µM (UACC-62): 57.5%
- growth at 10 µM (SK-OV-3): 97.6%
- growth at 10 µM (ACHN): 72%
- growth at 10 µM (OVCAR-8): 101%
- growth at 10 µM (EKVX): 113%
- growth at 10 µM (NCI-H226): 92.4%
- growth at 10 µM (HT-29): 102%
- growth at 10 µM [1]: 85.3%
- growth at 10 µM (SW-620): 97.4%
- growth at 10 µM (SNB-19): 82.6%
- growth at 10 µM (CCRF-CEM): 39.1%
- growth at 10 µM (OVCAR-5): 95.3%

Source: ChEMBL document CHEMBL3045770, “Design and synthesis of some thieno[2,3-c]pyridazine derivatives of expected anticancer activity” (2013)
